This is an account of results in publication PMC7618597, “Dual Nurr1/RXR agonism of valerenic acid and synthetic mimetics enables dimer-selective Nurr1 modulation” (ACS medicinal chemistry letters, 2025).

Usually EC50 stands for the midpoint of the concentration-response curve. The low end stands for an effect from little substance, the high end for a need for much substance.

SMILES strings stand for the structures.

Type in all cases: cell-based
The target in one assay is T1, RXRβ (Homo sapiens, UniProt P28702).
T1 construct: CMV-hRXRβ-LBD; expressed in transfected cells; host or cells: HEK293T
T1 sequence (P28702 296-529 limits assumed): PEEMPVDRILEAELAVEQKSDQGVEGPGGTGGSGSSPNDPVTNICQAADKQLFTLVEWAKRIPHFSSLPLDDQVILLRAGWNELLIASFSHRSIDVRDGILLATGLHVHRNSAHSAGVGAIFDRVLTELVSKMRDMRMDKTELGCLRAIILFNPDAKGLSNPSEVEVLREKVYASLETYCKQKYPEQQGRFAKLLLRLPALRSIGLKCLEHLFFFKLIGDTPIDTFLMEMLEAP
Nature of the assay: Gal4-hybrid reporter gene assay, RXRβ. Conditions: Gal4-hybrid reporter gene assay; for EC50: mean±S.E.M., n≥3. The method, then: (§1) modified Eagle’s medium (DMEM), high glucose supplemented with 10% fetal calf serum (FCS), sodium pyruvate (1 mM), penicillin (100 U/mL), and streptomycin (100 μg/mL) at 37 °C and 5% CO2 and seeded in 96-well plates (3×10^4 cells/well). After 24 h, the medium was changed to Opti-MEM without supplements, and the cells were transiently transfected using Lipofectamine LTX reagent (Invitrogen) according to the manufacturer’s protocol. Five hours after transfection, the cells were incubated with the test compounds in Opti-MEM supplemented with penicillin (100 U/mL), streptomycin (100 μg/mL), and 0.1% DMSO for 15 h before luciferase activity was measured using the Dual -Glo Luciferase Assay System (Promega) according to the manufacturer’s protocol on a Tecan Spark l uminometer (Tecan Deutschland GmbH, Germany). Firefly luminescence was divided by Renilla luminescence and multiplied by 1000, resulting in relative light units (RLU) to normalize for transfection efficiency and cell growth. Fold activation was obtained by dividing the mean RLU of a sample by the mean RLU of the untreated control. All samples were tested in at least three biologically independent experiments in duplicates. For dose –response curve fitting and calculation of EC50 values, the equation “[Agonist] vs. response – Variable slope (four parameters)” was used in GraphPad Prism (version 5.04, GraphPad Software, La Jolla, CA, USA). […] (10 μM, NR4A) and bexarotene (1 µM, NR2B) served as the positive control. […]
(§2) 150 μM in the same buffer containing 2-4% DMSO) in 21–26 injections (1 × 1 μL and 20 × 4 to 25 × 4 μL) with an injection interval of 120 s. As control experiments, the test compounds were titrated to the buffer, and the buffer was titrated to the protein under otherwise identical conditions. The heat rates of the compound-Nurr1 LBD titrations were analyzed using NanoAnalyze software (TA Instruments, New Castle, DE) with an independent binding model.

The target of another assay is T2, RXRα (Homo sapiens, UniProt P19793).
T2 construct: pFA-CMV-hRXRα-LBD; expressed in transfected cells; host or cells: HEK293T
T2 sequence (P19793 227-458 limits assumed): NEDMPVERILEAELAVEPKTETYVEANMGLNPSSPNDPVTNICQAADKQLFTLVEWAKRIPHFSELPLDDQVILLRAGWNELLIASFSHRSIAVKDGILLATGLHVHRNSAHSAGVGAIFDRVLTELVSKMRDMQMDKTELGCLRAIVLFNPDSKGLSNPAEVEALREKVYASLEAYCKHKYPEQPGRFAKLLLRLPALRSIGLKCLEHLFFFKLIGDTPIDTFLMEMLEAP
Put plainly: Gal4-hybrid reporter gene assay, RXRα. As to conditions: Gal4-hybrid reporter gene assay; for EC50: mean±S.E.M., n≥3. The method, then: as §1, §2
(In general: In a reporter assay the amount or activity of a reporter protein is the signal.)

In assay [1] the target is T3, full-length Nurr1 homodimer (NurRE) (Homo sapiens, UniProt P43354).
T3 construct: full-length human nuclear receptor Nurr1 encoded by pcDNA3.1 -hNurr1-NE; host or cells: HEK293T
T3 sequence (P43354 whole entry): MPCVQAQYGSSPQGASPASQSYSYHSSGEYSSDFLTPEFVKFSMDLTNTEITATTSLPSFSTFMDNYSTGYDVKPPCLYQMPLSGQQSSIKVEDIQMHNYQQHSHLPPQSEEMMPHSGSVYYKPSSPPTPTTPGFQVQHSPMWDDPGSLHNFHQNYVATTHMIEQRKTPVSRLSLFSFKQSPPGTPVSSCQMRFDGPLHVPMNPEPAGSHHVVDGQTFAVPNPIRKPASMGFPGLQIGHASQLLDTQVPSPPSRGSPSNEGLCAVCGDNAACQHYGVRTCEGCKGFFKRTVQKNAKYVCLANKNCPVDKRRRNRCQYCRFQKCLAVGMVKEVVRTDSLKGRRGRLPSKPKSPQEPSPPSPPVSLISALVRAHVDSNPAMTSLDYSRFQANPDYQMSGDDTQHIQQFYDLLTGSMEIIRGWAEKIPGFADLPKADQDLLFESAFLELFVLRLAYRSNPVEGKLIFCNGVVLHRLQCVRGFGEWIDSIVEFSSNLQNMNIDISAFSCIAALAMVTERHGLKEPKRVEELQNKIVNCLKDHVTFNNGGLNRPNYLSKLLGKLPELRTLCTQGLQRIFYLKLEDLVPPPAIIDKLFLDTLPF
Put plainly: Full-length Nurr1 reporter gene assay, homodimer response element NurRE. The procedure:
Based on these findings, we next determined the effects of 2 and 3 on Nurr1 activity in a cellular setting using reporter constructs for the NGFI-B response element (NBRE), the Nur response element (NurRE), and the direct repeat 5 (DR5)[36]. All three response elements are robustly activated by common Nurr1 agonists[4],[31]. […]
Reporter gene assays for full-length human Nurr1 and RXR. Modulation of full-length human Nurr1 (NR4A2) was studied using pRL-SV40 (1.5 ng/well reporter plasmid) and the previously described4 reporter plasmids pFR-Luc-NBRE (100 ng/well reporter plasmid), pFR-Luc-NurRE (50 ng/well reporter plasmid) or pFR-Luc-DR5 (50 ng/well reporter plasmid). […] Five hours after transfection, the cells wer e incubated with the test compounds in Opti-MEM supplemented with penicillin (100 U/mL), streptomycin (100 μg/mL), and 0.1% DMSO for 15 h before luciferase activity was measured using the Dual-Glo Luciferase Assay System (Promega) according to the manufacturer’s protocol on a Tecan Spark luminometer (Tecan Deutschland GmbH, Germany). Firefly luminescence was divided by Renilla luminescence and multiplied by 1000, resulting in relative light units (RLU) to normalize for transfection efficiency and cell growth. […]

As to `Cc1c2c(n(-c3ccc(CC(=O)O)cc3)c1C)CCC(F)(F)C2` [compound 2], on RXRβ, the “max. act. (RXR) β” value was 121±6 fold and a half-maximal effect (EC50) was put at 4.5 µM. At RXRα, the “max. act. (RXR) α” value is 69±1 fold and the EC50 was found to be 0.97 µM. The “activation on NurRE” value in assay [1] is “no activation was detectable”.
For the molecule `Cc1c(C)n(-c2ccc(CC(=O)O)cc2)c2ccc(F)cc12` [compound 3], on RXRβ, the “max. act. (RXR) β” value was 103±6 fold and a half-maximal response (EC50) required 0.6 µM. On RXRα, the “max. act. (RXR) α” value turned out to be 83±9 fold and the EC50 worked out at 0.4 µM. The “activation on NurRE” value in assay [1] was “no activation was detectable”.
